Experiments:
[1] = test system: HPV 18 positive adenocarcinoma cell (HeLa); details: cited from earlier work
gamma-H2AX in HeLa cells = assay: Immunofluorescent staining of gamma-H2AX; type: cell-based, human; details: oxaliplatin 5 μM 2 h plus 2 Gy, 15 min after radiation
Experimental: Immunofluorescent staining was used to determine radiation-induced expression of gamma-H2AX which is an indicator of DNA double-strand break. For immunofluorescent staining of gamma-H2AX, HeLa cervical cancer cells that were untreated (control), treated with oxaliplatin 5 μM for 2 h, irradiation of 2 Gy, and oxaliplatin plus irradiation, cells were harvested 15 min after radiation, stained with Rhodamine-conjugated gamma-H2AX antibody (red) and counterstained with DAPI (blue), respectively.

[2] = test system: pATM, pChk1, pChk2, Rad51 in HeLa cells; assay: Western blot of DNA damage repair molecules; type: cell-based, human; details: oxaliplatin 5 μM 2 h plus radiation 2 Gy
Experimental: For western blot analysis, HeLa cells were cultured with various treatments: untreated (control), oxaliplatin 5 μM for 2 h (oxaliplatin), radiation 2 Gy (RT alone) and oxaliplatin plus radiation (oxaliplatin+RT) for further 1 h and 6 h. Then, the cellular proteins were extracted, quantified and subjected to gel electrophoresis using 10% (wt/vol) SDS-polyacrylamide gels. Protein samples were then blotted onto polyvinylidene difluoride (PVDF) membranes (Bio-Rad, Hercules, Calif.). The membranes were probed with diluted primary antibodies and detected using horseradish peroxidase-conjugated anti-mouse IgG followed by the use of enhanced chemiluminescence kits (Amersham Pharmacia Biotech). Anti-actin antibody was used as an internal control.

SiHa (HPV 16+) cells = assay: MTT cell viability assay; type: cell-based, human; details: 24 hours' exposure, MTT after 2 days in fresh medium
Excerpt: (§1) An ideal radiosensitizer means it enhances radiosensitivity at non-toxic dose, but not due to the combined toxicity of drug and radiation. Thus to determine the toxic effect of different oxaliplatin concentrations on human cervical cancer cells by using 3-(4,5-dimethylthiazol-2-yl)-2, S-diphenyl tetrazolium bromide (MTT) assay. This assay is commonly used to determine cell proliferation, percent of viable cells, and cytotoxicity. MTT is a yellow dye, which can be absorbed by the living cells and be reduced to purplish blue formazan crystals by succinate tetrazolium reductase in mitochondria. Formazan formation can therefore be used to assess and determine the survival rate of cells.
(§2) In preliminary work, the human cervical cancer cell lines HeLa (HPV 18+) and SiHa (HPV 16+) were obtained from American Type Culture Collection (Manassas, Va.). […]
(§3) The human cervical cancer cell lines HeLa (HPV 18+) and SiHa (HPV 16+) were separately cultivated in media containing various doses (0˜10 μM) of oxaliplatin for 24 hours. […] For the assay, the cells were incubated with the MTT (tetrazolium compounds) for 4 h, lysed with DMSO, and the color crystals were solubilized with an ELISA reader at a wavelength of 570 nm.

HeLa (HPV 18+) cells = assay: MTT cell viability assay; type: cell-based, human; details: 24 hours' exposure, MTT after 2 days in fresh medium
Excerpt: as §1, §2, §3

HeLa cells [3] = assay: Cell cycle distribution by propidium iodide staining and flow cytometry; type: cell-based, human
Experimental: To eliminate the potential contribution of cell cycle redistribution to the observed radiosensitization, flow cytometric analysis was performed to determine cell cycle progression after treatment of oxaliplatin. After treating cervical cancer cell line HeLa with 5 μM oxaliplatin for 2 h or 24 h after radiaton, drugs was washed out and cells were cultured for further 24 h. HeLa cells were harvested and fixed with 70% ethanol at 4° C. for 1 h. The cells were stained for 30 min with propidium iodide solution (containing propidium iodide, 0.5 mg/mL; RNAse, 0.1 mg/mL) from a CycleTEST PLUS DNA reagent kit (Becton Dickinson, Lincoln Park, N.J.). Analysis of the DNA content was performed using a FACScaliber flow cytometer (Becton Dickinson). The data from 10^4 cells were collected and analyzed using ModFit software (Becton Dickinson).

HeLa cells [4] = assay: Cell morphology (Wright's staining), mitotic catastrophe; type: cell-based, human
Experimental: After seeding for 24 h, HeLa cells were treated with various conditions including untreated control, oxaliplatin 5 μM for 2 h, radiation 2 Gy, and oxaliplatin 5 μM for 2 h followed by washing out and radiation 2 Gy. After these treatments, cell were cultured for further 24 h and then collected for Wright's staining and observation under a light microscope.

SiHa cells = assay: Colony formation assay after oxaliplatin pretreatment and irradiation (radiation survival); type: cell-based, human
Experimental: (§4) To evaluate whether oxaliplatin treatment influenced the radiosensitivity of cervical cancer cells, this experiment treated HeLa and SiHa cells with oxaliplatin at various concentrations for 2 h prior to radiation survival assays in the invention.
(§5) Based on the above results of cell viability assessment, 0˜10 μM oxaliplatin was used to test for radiation sensitization. HeLa and SiHa were pretreated with various doses (0, 1.25, 5, and 10 μM) of oxaliplatin for 2 h, and the oxaliplatin was washed out before radiation delivery. Irradiation was performed with 6 MeV of electron beam by a linear accelerator (Clinac® 1800, Varian Associates, Inc.) with various doses (0.5, 1, 2 and 3 Gy) at a dose rate of 2.4 Gy/min in a single fraction. Full electron equilibrium was ensured for each fraction by a parallel plate PR-60C ionization chamber (CAPINTEL, Inc., Ramsey, N.J.). Following radiation, a colony formation assay was performed. The ionizing radition of the present invention used include, but not limited to, electron beam radition, photon, electron, gamma, alpha, beta, neutron, and proton radiation. Among them, electron beam radition is preferred.
(§6) Viable tumor cells (10^3) were plated onto culture dishes (35 mm^2) and allowed to grow in McCoy's 5A medium containing 20% heat-inactivated FCS and 0.24% agarose at 37° C. in a humidified 5% CO2 incubator. After 10 to 14 days, the resultant colonies were stained with 0.4% crystal violet and the colonies containing at least 50 cells were determined. The surviving fraction was calculated as the mean colonies/(cells inoculated×plating efficiency). The control plating efficiency for HeLa and SiHa cells was 40-60%. Survival curves were fitted by a linear-quadratic model. The sensitizer enhancement ratio (SER) was calculated as the radiation dose needed for radiation alone divided by the dose needed for oxaliplatin plus radiation to yield a surviving fraction of 37% (Do in radiobiology).
(§7) Statistical analysis was performed by analysis of variance when comparing the colony formation between different treatment conditions. All data were presented as mean ±standard error of the mean (SEM). SPSS 10.0 software (SPSS Inc, Chicago) was used for analysis of all the data. Statistical significance was assumed where the p value was less than 0.05.

HeLa cells [5] = assay: as above; type: cell-based, human
Experimental: as §4, §5, §6, §7

[6] = oxaliplatin 5 μM 2 h, versus untreated

| Compound | effect of combination with radiation [1] | radiation-induced early expression of gamma-H2AX (gamma-H2AX in HeLa cells) | Chk1 phosphorylation in irradiated cells [2] | expression of rad51 in irradiated cells [2] | radiation-augmented phosphorylation of Chk2 [2] | radiation-induced expression of phosphorylated ATM [2] | highest non-toxic (cell viability>90%) dose (SiHa (HPV 16+) cells) [µM] | highest non-toxic (cell viability>90%) dose (HeLa (HPV 18+) cells) [µM] | proportion in the G0/G1 phase (HeLa cells [3]; [6]) | proportion of cells in the S phase (HeLa cells [3]; [6]) | percentage of cells at G2/M phase (HeLa cells [3]; oxaliplatin 5 μM plus irradiation, irradiation alone 26.2%±3.7) | percentages of apoptosis and necrosis (HeLa cells [4]; between all groups) | percentage cells with mitotic catastrophe (HeLa cells [4]; oxaliplatin 5 μM 2 h alone, untreated control 5.6±1.3%) [%] | percentage cells with mitotic catastrophe (HeLa cells [4]; oxaliplatin 5 μM 2 h followed by radiation 2 Gy, radiation alone 16.7±3.2%) [%] | maximal sensitizer enhancement ratio (SER) at 37% survival (SiHa cells; oxaliplatin 2 h before radiation) | survival of irradiated tumor cells compared to radiation only (SiHa cells; pretreatment at 5 and 10 μM, radiation 0.5-3 Gy) | sensitizer enhancement ratio (SER) at 37% survival (HeLa cells [5]; HeLa, oxaliplatin 5 μM for 2 h before radiation) | sensitizer enhancement ratio (SER) at 37% survival (HeLa cells [5]; HeLa, oxaliplatin 10 μM for 2 h before radiation (maximal SER)) | survival of irradiated tumor cells compared to radiation only (HeLa cells [5]; HeLa, pretreatment at 5 and 10 μM, radiation 0.5-3 Gy) | enhancement of radiation efficiency versus radiation alone (HeLa cells [5]; cervical cancer cell lines (HeLa and SiHa)) |
| --- | --- | --- | --- | --- | --- | --- | --- | --- | --- | --- | --- | --- | --- | --- | --- | --- | --- | --- | --- | --- |
| N.N.[Cl][Pt][Cl] [cisplatin] | no effect |  |  |  |  |  |  |  |  |  |  |  |  |  |  |  |  |  |  |  |
| O=C1[O][Pt]2([NH][C@@H]3CCCC[C@H]3[NH]2)[O]C1=O [oxaliplatin] |  | reduced | no effect | no effect | reduced | markedly reduced | 10 | 5 | decreased | remained unchanged | 32.3%±3.5 | no marked changes | 27.3±2.2 | 38.5±3.8 | 4.8 | markedly decreased | 1.7 | 3.4 | markedly decreased | 3.1-3.9 times |
